# Source: EPA's ToxValDB 9.5 (doi:10.2903/j.efsa.2006.61r)
# Assays:
# Bibionidae = settings: chronic/long-term; duration: 28 days; seedling emergence
# Anas platyrhynchos = settings: acute; oral; unspecified; mortality
# Trichogramma cacoeciae = settings: not reported
# Daphnia magna = settings: chronic/long-term; duration: 21 days; reproduction
# Rattus norvegicus = settings: for LD50: acute, oral, mortality
# Tagia sp. = settings: acute; duration: 14 days; mortality
# Pontoscolex corethrurus = settings: chronic/long-term
# Colinus virginianus = settings: for LD50: acute, oral, mortality
# Apis mellifera = settings: acute, mortality
# Oncorhynchus mykiss = settings: acute; duration: 96 hours; mortality
smiles,measurement,setting,value
Cc1cc(C)nc(Nc2ccccc2)n1 [Pyrimethanil],NOEC,Bibionidae,4 mg/L
same,LD50,Anas platyrhynchos,> 2000 mg/kg
same,LEL,Trichogramma cacoeciae; mortality,1000 g/ha
same,LEL,Trichogramma cacoeciae; reproduction,1000 g/ha
same,NOEC,Daphnia magna,0.94 mg/L
same,LD50,Rattus norvegicus; F,5970 mg/kg
same,LD50,Rattus norvegicus; M,4150 mg/kg
same,NOAEL,"Rattus norvegicus; chronic, duration: 2 years, clinical chemistry",17 mg/kg-day
same,NOAEL,"Rattus norvegicus; reproduction developmental, M, body weight",18.4 mg/kg-day
same,NOAEL,"Rattus norvegicus; subchronic, duration: 90 days, organ weight",5.4 mg/kg-day
same,LC50,Tagia sp.,626 mg/kg
same,NOEC,Pontoscolex corethrurus,4.12 mg/kg
same,LD50,Colinus virginianus; diet,> 874 mg/kg
same,LD50,Colinus virginianus,> 2000 mg/kg
same,NOAEL,Colinus virginianus; reproduction developmental,96 mg/kg-day
same,LEL,"Encarsia formosa; acute, duration: 6 days, mortality",1000 g/ha
same,LEL,"Encarsia formosa; not reported, reproduction",1000 g/ha
same,LD50,Apis mellifera; dermal,> 100 µg/piece
same,LD50,"Apis mellifera; duration: 48 hours, oral, unspecified",> 100 µg/piece
same,LC50,Oncorhynchus mykiss,10.6 µg/mL
